{"source": "paper PMC5484173", "about": "“CB1 Allosteric Modulator Org27569 Is an Antagonist/Inverse Agonist of ERK1/2 Signaling” (Cannabis and Cannabinoid Research, 2016)", "key": {"[1]": {"biological_target": "T1, human cannabinoid type-1 receptor (hCB1) (Homo sapiens, UniProt P21554)", "T1 construct": "expressed in transfected cells", "T1 sequence (P21554 whole entry)": "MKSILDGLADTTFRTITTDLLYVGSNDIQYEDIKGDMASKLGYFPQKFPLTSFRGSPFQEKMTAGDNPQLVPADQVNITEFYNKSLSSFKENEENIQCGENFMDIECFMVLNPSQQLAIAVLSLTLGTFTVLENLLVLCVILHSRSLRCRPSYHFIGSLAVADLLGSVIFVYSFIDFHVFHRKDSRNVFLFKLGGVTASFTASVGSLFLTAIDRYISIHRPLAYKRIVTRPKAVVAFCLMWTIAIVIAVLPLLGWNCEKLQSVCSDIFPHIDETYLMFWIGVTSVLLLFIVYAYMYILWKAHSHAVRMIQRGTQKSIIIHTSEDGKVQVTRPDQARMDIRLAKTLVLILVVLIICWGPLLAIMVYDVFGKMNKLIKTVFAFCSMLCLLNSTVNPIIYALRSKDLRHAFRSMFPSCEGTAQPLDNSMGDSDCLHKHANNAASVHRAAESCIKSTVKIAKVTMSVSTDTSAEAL", "assay": "Subcellular fractionation: phospho-ERK in nuclear-enriched and cytosolic fractions of hCB1 HEK293 cells", "assay_type": "cell-based", "details": "Org27569 10 μM, 20 min, normalized to beta-actin", "experimental": "(§1) Cells were plated in poly-D-lysine (PDL)-coated 6-well plates or 100-mm dishes (for fractionation experiments) to a confluency of ∼70–80% and serum starved for 24 h before all treatments. For internalization experiments, cells were plated on PDL-coated cover-slips in a 24-well format. For experiments examining Gi/o protein mediation, cells were exposed to PTX (200 ng/mL) for 18 h before drug treatment when appropriate.\nCells were treated by application of vehicle or antagonist followed immediately by application of vehicle or agonist and incubated in serum-free DMEM at 37°C for times indicated, then washed once with ice-cold phosphate-buffered saline (PBS), and lysed with buffer containing HEPES (50 mM), NaCl (150 mM), EDTA (1 mM), EGTA (1 mM), glycerol (10%), Triton X-100 (1%), MgCl2 (10 μM), NaF (25 mM), Na3VO4 (1 mM), para-nitrophenyl phosphate (20 mM) and EDTA-free protease inhibitor. Lysates were incubated on ice for 30 min, then centrifuged at 16,000 g for 30 min at 4°C, and supernatants were collected.\nCells were grown and treated as described above on 100-mm dishes and washed once with ice-cold PBS. […]\nThe initial S1 fraction was centrifuged at 10,000 g for 10 min and the resulting S2 fraction served as the cytosolic/membrane fraction. Protein was determined by the NanoDrop™ A280 assay (Thermo Scientific, Wilmington, DE). […]"}, "[2]": {"biological_target": "T2, GFP-rat CB1 receptor (Rattus norvegicus, UniProt P20272)", "T2 construct": "expressed in transfected cells", "T2 sequence (P20272 whole entry)": "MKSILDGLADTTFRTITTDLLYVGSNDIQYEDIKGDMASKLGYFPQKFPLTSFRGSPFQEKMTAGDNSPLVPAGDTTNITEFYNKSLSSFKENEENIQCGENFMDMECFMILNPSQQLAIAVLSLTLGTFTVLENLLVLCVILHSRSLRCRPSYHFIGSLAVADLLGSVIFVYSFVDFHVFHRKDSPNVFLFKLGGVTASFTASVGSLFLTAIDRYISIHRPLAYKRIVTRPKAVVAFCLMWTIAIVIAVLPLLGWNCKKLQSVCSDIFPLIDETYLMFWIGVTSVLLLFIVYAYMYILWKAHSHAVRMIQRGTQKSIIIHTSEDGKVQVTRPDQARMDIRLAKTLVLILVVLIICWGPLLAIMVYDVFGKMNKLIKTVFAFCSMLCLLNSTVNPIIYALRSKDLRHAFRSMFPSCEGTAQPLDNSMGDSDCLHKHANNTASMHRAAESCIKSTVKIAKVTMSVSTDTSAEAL", "assay": "Receptor internalization (puncta count) in GFP-rat CB1 HEK293 cells", "assay_type": "cell-based", "details": "20-120 min", "experimental": "(§2) Vendor authenticated human embryonic kidney (HEK293; American Type Culture Collection, Rockville, MD) cells were cultured in 5% fetal bovine serum (FBS) defined (Hyclone Labs, Logan, UT) in Dulbecco's modified Eagle's medium (DMEM; Corning Cellgro, Manassas, VA) at 37°C and 5% CO2. Cell lines were generated as previously described[32] by transfection of the untagged hCB1 or N-terminally green fluorescent protein (GFP)-tagged rat CB1 receptor with Lipofectamine 2000 (Life Technologies, Gaithersburg, MD). Cells were maintained in a culture medium with geneticin (0.5 mg/mL; G418) and not used after 25 passages.\nas §1\nFor internalization experiments, GFP-rat CB1 HEK293 cells were plated on PDL-coated cover-slips in the 24-well format and treated with vehicle (0.2% DMSO), CP55,940 (1 μM), Org27569 (10 μM), or both for 20–120 min. Cell images were taken blinded, converted to grayscale in Photoshop CS5, and then analyzed in ImageJ. Background was subtracted by using a “rolling ball” algorithm (rolling=3). Puncta within the range (size=3–400, circularity=0.01–1.00) were counted. These parameters were used based on image resolution and brightness. The same conditions were applied to all the images and image analyses."}, "[3]": {"biological_target": "T1, human cannabinoid type-1 receptor (hCB1)", "assay_type": "cell-based"}, "[4]": {"test_system": "hCB1-untransfected HEK293 cells", "assay": "phospho-ERK1/2 western blot in hCB1-untransfected HEK293 cells", "assay_type": "cell-based, human", "details": "Org27569 10 μM, 20-min treatment", "experimental": "as §2, with “passages. […]” for “passages.”\nProtein amount (20 μg) was determined by the Bradford method, separated by 10% SDS-PAGE, and transferred to nitrocellulose membranes. […]\nMembranes were rinsed thrice in 0.1% Tween-20 in PBS before incubating with LiCor secondary antibodies (IRDye® 800CW Goat anti-Mouse; 1:6666; IRDye 680RD Goat anti-Rabbit; 1:10,000) at room temperature for 1 h. Blots were imaged using LiCor Odyssey imaging software, and phospho-ERK signal was normalized to total ERK and data expressed as percent of vehicle control. […]\nData were normalized as percent vehicle control and analyzed by one- or two-way ANOVA with Newman–Keuls and Bonferroni post hoc tests, and data were considered significant with p<0.05. […]"}, "[5]": {"test_system": "CB1", "design": "method as in PMID 26044547", "details": "Chinese hamster ovary cells, AlphaScreen SureFire kit; cited from earlier work"}}, "note": "“And” between values parts separate entries of the source, which are not always exact repeats. Identical values can stand only once. “Also recorded” adds a separate entry of the source. Like-named read-outs stand apart in the source and are kept apart here.", "data": [{"smiles": "CCc1c(C(=O)NCCc2ccc(N3CCCCC3)cc2)[nH]c2ccc(Cl)cc12", "note": "[Org27569]", "values": [{"measurement": "effect on cytosolic phospho-ERK levels", "setting": "[1]; cytosolic fraction", "result": "significantly decreased"}, {"measurement": "effect on nuclear phospho-ERK levels", "setting": "[1]; nuclear-enriched fraction", "result": "significantly decreased"}, {"measurement": "receptor internalization, compound alone", "setting": "[2]; Org27569 10 μM alone", "result": "did not significantly affect receptor internalization"}, {"measurement": "effect on CP55,940-induced receptor internalization (increases in puncta)", "setting": "[2]; Org27569 10 μM with CP55,940 1 μM", "result": "prevented"}, {"measurement": "bottom of the fit curve (phospho-ERK, percent of vehicle control)", "setting": "[3]", "result": "111.3%±7.72%"}, {"measurement": "effect on CP55,940-induced activation of ERK", "setting": "[3]", "result": "prevented CP55,940-induced activation of ERK"}, {"measurement": "extent of antagonism of 2-AG-stimulated ERK activation", "setting": "[3]", "result": "did not completely attenuate"}, {"measurement": "extent of antagonism of CP55,940-induced ERK activation", "setting": "[3]", "result": "fully antagonized"}, {"measurement": "extent of antagonism of THC-induced ERK activation", "setting": "[3]", "result": "did not completely attenuate"}, {"measurement": "pIC50±SE on ERK phosphorylation", "setting": "[3]", "result": "6.78±0.273 and 6.783±0.273"}, {"measurement": "effect on ERK phosphorylation, compound alone", "setting": "[3]; 10.0 μM alone, 5-min incubation", "result": "small but nonsignificant reduction of ERK phosphorylation"}, {"measurement": "effect on phospho-ERK levels in PTX-treated cells", "setting": "[3]; Org27569 10.0 μM, 20 min, after overnight PTX (200 ng/mL)", "result": "not in PTX-treated cells"}, {"measurement": "effect on basal ERK phosphorylation", "setting": "[3]; Org27569 alone (10 μM), 20-min treatment, hCB1-transfected HEK293 cells, no PTX", "result": "significantly reduced basal ERK phosphorylation; also recorded: reduced basal ERK phosphorylation in hCB1-transfected; also recorded: produced a reduction in phospho-ERK levels in control cells"}, {"measurement": "bottom of the fit curve (phospho-ERK, percent of vehicle control)", "setting": "[3]; Org27569 concentration-response against 2-AG at EC80 (1.2 μM), 5 min", "result": "196%±123.2%"}, {"measurement": "pIC50±SE on ERK phosphorylation", "setting": "[3]; no probe agonist (alone, basal ERK phosphorylation), 20 min", "result": "6.86±0.214"}, {"measurement": "IC50", "setting": "[3]; no probe agonist (alone, basal ERK phosphorylation), cells treated for 20 min", "result": 0.139, "unit": "µM"}, {"measurement": "pIC50±SE on ERK phosphorylation", "setting": "[3]; probe agonist 2-AG (1.2 μM, EC80), 5 min", "result": "6.26±0.239"}, {"measurement": "IC50", "setting": "[3]; probe agonist 2-AG (1.2 μM, EC80), cells treated for 5 min, read-out: IC50 on ERK phosphorylation", "result": 0.546, "unit": "µM"}, {"measurement": "pIC50±SE on ERK phosphorylation", "setting": "[3]; probe agonist THC (494 nM in table, 500 nM in text; EC80), 5 min", "result": "6.38±0.394"}, {"measurement": "IC50", "setting": "[3]; probe agonist THC (494 nM, EC80), cells treated for 5 min, read-out: IC50 on ERK phosphorylation", "result": 0.417, "unit": "µM"}, {"measurement": "IC50", "setting": "[3]; read-out: IC50 on ERK phosphorylation", "result": 0.165, "unit": "µM"}, {"measurement": "effect on basal ERK phosphorylation", "setting": "[4]", "result": "not in hCB1-untransfected HEK293 cells"}, {"measurement": "effect on THC-induced ERK activation", "setting": "[5]", "result": "no effect"}]}, {"smiles": "CCCCCCC(C)(C)c1ccc([C@@H]2C[C@H](O)CC[C@H]2CCCO)c(O)c1", "note": "[CP55,940]", "values": [{"measurement": "receptor internalization (puncta), agonist alone", "setting": "[2]; CP55,940 1 μM", "result": "increases in puncta"}, {"measurement": "EC80 for ERK activation", "setting": "[3]", "result": 0.0061, "unit": "µM"}, {"measurement": "effect on ERK phosphorylation, agonist alone", "setting": "[3]", "result": "robust increase in ERK phosphorylation"}]}, {"smiles": "CCCCC/C=C\\C/C=C\\C/C=C\\C/C=C\\CCCC(=O)OC(CO)CO", "note": "[2-AG, 2-arachidonoylglycerol]", "values": [{"measurement": "EC80 for ERK activation", "setting": "[3]; agonist alone, hCB1 HEK293 cells, 5 min", "result": 1.2, "unit": "µM"}]}]}
